US20230086703A1, “N-(4-(5-chloropyridin-3-yl)phenyl)-2-(2-(cyclopropanesulfonamido)pyrimidin-4-yl) butanamide derivatives and related compounds as human CTPS1 inhibitors for the treatment of proliferative diseases” (Step Pharma S.A.S., priority 2019, published 2023)

biological target: T1, human CTPS1 (Homo sapiens, UniProt P17812); test: RapidFire/MS-based enzyme selectivity assay (human CTPS1 versus CTPS2), CTPS1 isoform; type: biochemical; conditions: RapidFire/MS IC50 values of CTPS1 and CTPS2; Table 15
T1 construct: FLAG (with GG linker); His8 (with GG linker); purchased Proteros biostructures GmbH
T1 sequence (P17812 1-591): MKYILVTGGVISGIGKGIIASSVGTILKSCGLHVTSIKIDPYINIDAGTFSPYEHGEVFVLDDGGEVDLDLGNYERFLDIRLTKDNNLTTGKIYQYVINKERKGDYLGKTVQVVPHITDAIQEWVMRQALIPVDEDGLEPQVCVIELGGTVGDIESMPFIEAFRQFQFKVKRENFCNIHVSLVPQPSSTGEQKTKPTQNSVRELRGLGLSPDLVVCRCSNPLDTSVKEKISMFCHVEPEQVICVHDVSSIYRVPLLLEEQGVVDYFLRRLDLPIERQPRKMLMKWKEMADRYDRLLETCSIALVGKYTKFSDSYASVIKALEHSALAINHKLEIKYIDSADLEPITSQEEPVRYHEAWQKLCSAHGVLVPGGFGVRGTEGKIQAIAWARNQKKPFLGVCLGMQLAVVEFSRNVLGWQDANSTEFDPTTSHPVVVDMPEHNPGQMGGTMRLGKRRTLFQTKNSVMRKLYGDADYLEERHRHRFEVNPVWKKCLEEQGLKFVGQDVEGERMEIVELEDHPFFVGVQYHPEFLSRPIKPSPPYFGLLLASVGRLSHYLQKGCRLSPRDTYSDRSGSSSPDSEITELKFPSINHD
Experimental: Human CTPS1 Versus CTPS2 Selectivity Assessment by RapidFire/MS Analysis.
The enzyme inhibitory activities against each target isoform of interest may be determined for the compounds of the invention using an optimised RapidFire high-throughput mass spectrometry (RF/MS) assay format. RF/MS assays for both human CTPS1 and CTPS2 may be performed in assay buffer consisting of 50 mM HEPES (Merck), 20 mM MgCl2, 5 mM KCl, 1 mM DTT, 0.01% Tween-20, pH to 8.0 accordingly. Human full-length active C-terminal FLAG-His-tag CTPS1 (UniProtKB—P17812, CTPS1[1-591]-[…] (CTPS1[1-591]-SEQ ID NO: 1)) may be obtained from Proteros biostructures GmbH. Human full length active C-terminal FLAG-His-Avi tagged CTPS2 (UniProtKB—Q9NRF8, CTPS2 [1-586]-[…] (CTPS2 [1-586]—SEQ ID NO: 2)) may be obtained from Harker Bio.
Human CTPS (1 or 2) protein may be prepared in 1× assay buffer to the final working protein concentration required for the reaction. A 2 uL volume per well of 2×CTPS (1 or 2) protein may be mixed with 40 nL of compound using acoustic (ECHO) delivery and incubated for 10 minutes at 25° C. Each isoform enzymatic reaction may be subsequently initiated by addition of 2 uL per well of a 2× substrate mix in assay buffer. For hCTPS1: ATP (0.3 mM), UTP (0.2 mM), GTP (0.07 mM) and L-glutamine (0.1 mM). For hCTPS2: ATP (0.1 mM), UTP (0.04 mM), GTP (0.03 mM) and L-glutamine (0.1 mM). Each mixture may be incubated for an appropriate amount of time per isoform within the determined linear phase of the reaction at 25° C. A 80 uL volume of stop solution (1% formic acid with 0.5 uM ^13C9-^15N3-CTP in H2O) may be added and the plate immediately heat-sealed and centrifuged for 10 minutes at 4,000 rpm. Following centrifugation, plates may be loaded onto the Agilent RapidFire microfluidic solid phase extraction system coupled to an API4000 triple quadrupole mass spectrometer (RF/MS) for analysis.
In all cases, the enzyme converts UTP to CTP. Highly specific and sensitive multiple reaction monitoring (MRM) MS methods may be optimised for the detection of the enzymatic reaction product, CTP, and the stable isotope labelled product standard ^13C9-^15N3-CTP. Readout for data analysis may be calculated as the ratio between the peak area of the product CTP and the internal standard ^13C9-^15N3-CTP. For data reporting, the following equation may be used:
(R=ratio/readout, P=product signal area, IS=internal standard signal area)
For each screening plate, the means of the negative (DMSO) and positive control values were used for the calculation of the respective assay window (S/B) and Z′ values. The median of the respective control values was used for calculation of percent inhibition according to the following equation:
(I=Inhibition, Rneq=median of negative control readout values, Rpos=median of positive control readout values, Rsample=sample readout value)
Percentage inhibition was then plotted against compound concentration, and the 50% inhibitory concentration (IC50) was determined from the resultant concentration-response curve.
Fold selectivity between CTPS1 and CTPS2 was subsequently calculated according to the following equation: […]

Structure (SMILES) | Selectivity (fold selectivity between CTPS1 and CTPS2)
CCOc1cncc(-c2ccc(NC(=O)C(C)(C)c3nc(NS(=O)(=O)C4CC4)ncc3C)cc2)n1 [P70, 2-(2-(cyclopropanesulfonamido)-5-methylpyrimidin-4-yl)-N-(4-(6-ethoxypyrazin-2-yl)phenyl)-2-methylpropanamide] | + (2-30 fold (+))
CCOc1cncc(-c2ccc(NC(=O)C(C)(C)c3ccnc(NS(=O)(=O)CC)n3)cc2)n1 [P74, N-(4-(6-ethoxypyrazin-2-yl)phenyl)-2-(2-(ethylsulfonamido)pyrimidin-4-yl)-2-methylpropanamide] | ++ (>30-60 fold (++))
CCOc1cncc(-c2ccc(NC(=O)C(C)(C)c3ccnc(NS(C)(=O)=O)n3)nc2)n1 [P76, N-(5-(6-ethoxypyrazin-2-yl)pyridin-2-yl)-2-methyl-2-(2-(methylsulfonamido)pyrimidin-4-yl)propanamide] | ++ (>30-60 fold (++))
CCC(C(=O)Nc1ccc(-c2cncc(C(F)(F)F)n2)cn1)c1ccnc(NS(=O)(=O)C2CC2)n1 (stereo not drawn) [P87, 2-(2-(cyclopropanesulfonamido)pyrimidin-4-yl)-N-(5-(6-(trifluoromethyl)pyrazin-2-yl)pyridin-2-yl)butanamide] | ++ (>30-60 fold (++))
CCC(C(=O)Nc1ccc(-c2cncc(OCC(F)(F)F)n2)cc1F)c1ccnc(NS(=O)(=O)C2CC2)n1 (stereo not drawn) [P98, 2-(2-(cyclopropanesulfonamido)pyrimidin-4-yl)-N-(2-fluoro-4-(6-(2,2,2-trifluoroethoxy)pyrazin-2-yl)phenyl)butanamide] | +++ (>60 fold (+++))
CCC(C(=O)Nc1ccc(-c2cncc(C(F)(F)F)n2)cc1)c1ccnc(NS(=O)(=O)C2CC2)n1 (stereo not drawn) [P103, 2-(2-(cyclopropanesulfonamido)pyrimidin-4-yl)-N-(4-(6-(trifluoromethyl)pyrazin-2-yl)phenyl)butanamide] | + (2-30 fold (+))
CCOc1cncc(-c2ccc(NC(=O)C(CC)c3ccnc(NS(=O)(=O)C4CC4)n3)cc2)n1 (stereo not drawn) [P105, 2-(2-(cyclopropanesulfonamido)pyrimidin-4-yl)-N-(4-(6-ethoxypyrazin-2-yl)phenyl)butanamide] | ++ (>30-60 fold (++))
CCC(C(=O)Nc1ccc(-c2cncc(OCC(F)(F)F)n2)cc1)c1ccnc(NS(=O)(=O)C2CC2)n1 (stereo not drawn) [P108, 2-(2-(cyclopropanesulfonamido)pyrimidin-4-yl)-N-(4-(9-(2,2,2-trifluoroethoxy)pyrazin-2-yl)phenyl)butanamide] | +++ (>60 fold (+++))
CCOc1cncc(-c2ccc(NC(=O)C(CCOC)c3ccnc(NS(=O)(=O)C4CC4)n3)cc2)n1 (stereo not drawn) [P110, 2-(2-(cyclopropanesulfonamido)pyrimidin-4-yl)-N-(4-(9-ethoxypyrazin-2-yl)phenyl)-4-methoxypbutanamide] | ++ (>30-60 fold (++))
CCOc1cncc(-c2ccc(NC(=O)C3(c4ccnc(NS(=O)(=O)C5CC5)n4)CCCC3)nc2)n1 [P136, 1-(2-(cyclopropanesulfonamido)pyrimidin-4-yl)-N-(5-(6-ethoxypyrazin-2-yl)pyridin-2-yl)cyclopentane-1-carboxamide] | +++ (>60 fold (+++))
CCOc1cncc(-c2ccc(NC(=O)C3(c4ccnc(NS(=O)(=O)C5CC5)n4)CCOCC3)c(F)c2)n1 [P143, 4-(2-(cyclopropanesulfonamido)pyrimidin-4-yl)-N-(4-(6-ethoxypyrazin-2-yl)-2-fluorophenyl)tetrahydro-2H-pyran-4-carboxamide] | +++ (>60 fold (+++))

More lines, now with the values ahead:

Selectivity (fold selectivity between CTPS1 and CTPS2) | Structure (SMILES)
+++ (>60 fold (+++)) | CCOc1cncc(-c2ccc(NC(=O)C3(c4ccnc(NS(=O)(=O)C5CC5)n4)CC3)cc2)n1 [P83, 1-(2-(cyclopropanesulfonamido)pyrimidin-4-yl)-N-(4-(6-ethoxypyrazin-2-yl)phenyl)cyclopropanecarboxamide]
+++ (>60 fold (+++)) | CCOc1cncc(-c2ccc(NC(=O)C(CC)c3ccnc(NS(=O)(=O)C4CC4)n3)nc2)n1 (stereo not drawn) [P88, 2-(2-(cyclopropanesulfonamido)pyrimidin-4-yl)-N-(5-(6-ethoxypyrazin-2-yl)pyridin-2-yl)butanamide]
+++ (>60 fold (+++)) | CCC(C(=O)Nc1ccc(-c2cncc(OC(C)C)n2)cn1)c1ccnc(NS(=O)(=O)C2CC2)n1 (stereo not drawn) [P89, 2-(2-(cyclopropanesulfonamido)pyrimidin-4-yl)-N-(5-(6-isopropoxypyrazin-2-yl)pyridin-2-yl)butanamide]
+ (2-30 fold (+)) | CCC(C(=O)Nc1ccc(-c2cncc(OC)n2)cc1F)c1ccnc(NS(=O)(=O)C2CC2)n1 (stereo not drawn) [P95, 2-(2-(cyclopropanesulfonamido)pyrimidin-4-yl)-N-(2-fluoro-4-(6-methoxypyrazin-2-yl)phenyl)butanamide]
+ (2-30 fold (+)) | CCOc1cncc(-c2ccc(NC(=O)C(CC)c3ccnc(NS(=O)(=O)C4CC4)n3)c(F)c2)n1 (stereo not drawn) [P96, 2-(2-(cyclopropanesulfonamido)pyrimidin-4-yl)-N-(4-(6-ethoxypyrazin-2-yl)-2-fluorophenyl)butanamide]
+++ (>60 fold (+++)) | CCOc1cncc(-c2ccc(NC(=O)C3(c4ccnc(NS(=O)(=O)C5CC5)n4)CCOCC3)nc2)n1 [P115, 4-(2-(Cyclopropanesulfonamido)pyrimidin-4-yl)-N-(5-(6-ethoxypyrazin-2-yl)pyridin-2-yl)tetrahydro-2H-pyran-4-carboxamide]
+++ (>60 fold (+++)) | CCOc1cncc(-c2ccc(C(=O)NCc3ccnc(NS(=O)(=O)C4CC4)n3)cc2)n1 [P118, N-((2-(cyclopropanesulfonamido)pyrimidin-4-yl)methyl)-4-(6-ethoxypyrazin-2-yl)benzamide]
++ (>30-60 fold (++)) | CC(C)(C(=O)Nc1ccc(-c2cncc(C3CC3)n2)cn1)c1ccnc(NS(=O)(=O)C2CC2)n1 [P125, 2-(2-(cyclopropanesulfonamido)pyrimidin-4-yl)-N-(5-(6-cyclopropylpyrazin-2-yl)pyridin-2-yl)-2-methylpropanamide]
+ (2-30 fold (+)) | CC(C)(C(=O)Nc1ccc(-c2cncc(C3CC3)n2)cc1F)c1ccnc(NS(=O)(=O)C2CC2)n1 [P128, 2-(2-(cyclopropanesulfonamido)pyrimidin-4-yl)-N-(4-(9-cyclopropylpyrazin-2-yl)-2-fluorophenyl)-2-methylpropanamide]
++ (>30-60 fold (++)) | CC(C)c1cncc(-c2ccc(NC(=O)C(C)(C)c3ccnc(NS(=O)(=O)C4CC4)n3)cc2)n1 [P132, 2-(2-(cyclopropanesulfonamido)pyrimidin-4-yl)-N-(4-(6-isopropylpyrazin-2-yl)phenyl)-2-methylpropanamide]
